According to patent US20260015350A1, “AZAQUINAZOLINE PAN-KRAS INHIBITORS” (Mirati Therapeutics, Inc., priority 2022, published 2026):

Key:
[1] = target: T1, KRas^G12D (Homo sapiens, UniProt P01116, G12D); test: KRas binding assay (TR-FRET tracer displacement), KRas G12D
T1 construct: Biotinylated KRas (corresponding to amino acids 1-169, produced at Accelegan Inc.); biotin (biotinylated); purchased Accelegan Inc

[2] = system: KRas-mediated phosphorylation of ERK in HCT116 cells; test: Inhibition of KRas-mediated phosphorylation of ERK (Cisbio HTRF pERK), HCT116 cells; assay type: cell-based; conditions: Homo sapiens; for inhibition at 0.1 µM: HCT-116, 3 h, single point, 100 nM compound, 3 hrs; for IC50: HCT-116, HTRF pERK
Method in brief: (§1)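 6,000 cells/well; cpd 10 uM top, 3-fold x10, 0.8% DMSO final; 3 hr incubation; Min ctrl Trametinib 0.2 uM; lysis 40 min 4° C shaking; d2 + Cryptate Ab mix, 2 hr RT; HTRF read.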

[3] = system: KRas-mediated phosphorylation of ERK in H727 cells; test: Inhibition of KRas-mediated phosphorylation of ERK (Cisbio HTRF pERK), H727 cells; assay type: cell-based; conditions: Homo sapiens, NCI-H727, H727 cells; HTRF pERK
Method in brief: (§2)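 Phosphorylated ERK was quantified by HTRF using d2-conjugate and Cryptate antibodies added to lysates for 2 hrs at room temperature.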

[4] = system: KRas-mediated phosphorylation of ERK in H460 cells; test: Inhibition of KRas-mediated phosphorylation of ERK (Cisbio HTRF pERK), H460 cells; assay type: cell-based; conditions: Homo sapiens; for inhibition at 0.1 µM: NCI-H460, 3 h, single point, 100 nM compound, 3 hrs; for IC50: NCI-H460, HTRF pERK
Method in brief: as §2

[5] = system: KRas-mediated phosphorylation of ERK in MKN1 cells; test: Inhibition of KRas-mediated phosphorylation of ERK (Cisbio HTRF pERK), MKN1 cells; assay type: cell-based; conditions: Homo sapiens, MKN-1
Method in brief: (§3)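 Seeding density was 6,000 cells/well; medium RPMI, 10% FBS. Read-out by homogeneous time-resolved fluorescence (pERK) after 4 hours covered at room temperature.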

[6] = system: KRas-mediated phosphorylation of ERK in PSN1 cells; test: Inhibition of KRas-mediated phosphorylation of ERK (Cisbio HTRF pERK), PSN1 cells; assay type: cell-based; conditions: Homo sapiens
Method in brief: as §3

[7] = target: T2, KRas^G12V (Homo sapiens, UniProt P01116, G12V); test: KRas binding assay (TR-FRET tracer displacement), KRas G12V
T2 construct: Biotinylated KRas (corresponding to amino acids 1-169, produced at Accelegan Inc.); biotin (biotinylated); purchased Accelegan Inc
T2 sequence (P01116 1-169 isoform P01116-2 G12V): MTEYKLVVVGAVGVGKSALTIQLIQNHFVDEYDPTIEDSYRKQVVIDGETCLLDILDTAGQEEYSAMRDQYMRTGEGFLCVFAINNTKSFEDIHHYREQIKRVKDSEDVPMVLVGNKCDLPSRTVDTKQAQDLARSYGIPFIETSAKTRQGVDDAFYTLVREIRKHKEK

[8] = target: T3, KRas^G12R (Homo sapiens, UniProt P01116, G12R); test: KRas binding assay (TR-FRET tracer displacement), KRas G12R
T3 construct: Biotinylated KRas (corresponding to amino acids 1-169, produced at Accelegan Inc.); biotin (biotinylated); purchased Accelegan Inc
T3 sequence (P01116 1-169 isoform P01116-2 G12R): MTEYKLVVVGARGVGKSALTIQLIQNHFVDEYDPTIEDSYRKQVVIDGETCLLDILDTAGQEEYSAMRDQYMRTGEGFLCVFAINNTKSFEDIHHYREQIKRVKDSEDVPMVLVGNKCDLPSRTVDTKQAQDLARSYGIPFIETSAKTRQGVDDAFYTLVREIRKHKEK

[9] = system: KRas-mediated phosphorylation of ERK in AsPC-1 cells; test: Inhibition of KRas-mediated phosphorylation of ERK (Cisbio HTRF pERK), AsPC-1 cells; assay type: cell-based; conditions: Homo sapiens, ASPC1, AsPC-1 cells; HTRF pERK
Method in brief: as §2

[10] = system: KRas-mediated phosphorylation of ERK in A549 cells; test: Inhibition of KRas-mediated phosphorylation of ERK (Cisbio HTRF pERK), A549 cells; assay type: cell-based; conditions: Homo sapiens, HTRF pERK
Method in brief: as §1

T1 sequence (P01116 1-169 isoform P01116-2 G12D): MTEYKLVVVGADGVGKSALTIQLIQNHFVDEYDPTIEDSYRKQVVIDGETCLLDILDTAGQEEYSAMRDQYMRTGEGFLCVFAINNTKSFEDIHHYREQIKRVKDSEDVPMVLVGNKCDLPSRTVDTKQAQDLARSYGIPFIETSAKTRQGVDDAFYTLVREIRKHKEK

| SMILES | IC50 [1] [nM] | IC50 [3] [nM] | IC50 [5] [nM] | IC50 [6] [nM] | IC50 [7] [nM] | IC50 [8] [nM] | IC50 [9] [nM] | IC50 [2] [nM] | IC50 [4] [nM] | IC50 [10] [nM] | inhibition at 0.1 µM [2] [%] | inhibition at 0.1 µM [4] [%] |
| --- | --- | --- | --- | --- | --- | --- | --- | --- | --- | --- | --- | --- |
| CCc1c(F)ccc2cc(O)cc(-c3ncc4c(/C=C/c5ccnn5C)nc(OC[C@@]56CCCN5C[C@H](F)C6)nc4c3F)c12 [Example 543, 5-ethyl-6-fluoro-4-(8-fluoro-2-(((2R,7aS)-2-fluorotetrahydro-1H-pyrrolizin-7a(5H)-yl)methoxy)-4-((E)-2-(1-methyl-1H-pyrazol-5-yl)vinyl)pyrido[4,3-d]pyrimidin-7-yl)naphthalen-2-ol] | 1690 | 1610 | 5950 | > 10000 | 152 | 354 | > 10000 | – | – | – | 5 | -1 |
| CCc1c(F)ccc2cc(O)cc(-c3ncc4c(N5CCCc6ncccc6C5)nc(OC[C@@]56CCCN5C[C@H](F)C6)nc4c3F)c12 [Example 579, 5-ethyl-6-fluoro-4-(8-fluoro-2-(((2R,7aS)-2-fluorotetrahydro-1H-pyrrolizin-7a(5H)-yl)methoxy)-4-(5,7,8,9-tetrahydro-6H-pyrido[3,2-c]azepin-6-yl)pyrido[4,3-d]pyrimidin-7-yl)naphthalen-2-ol] | 5 | 369 | 37 | > 10000 | 6 | 3 | 155 | 1780 | 481 | 357 | – | – |
| CCc1c(F)ccc2cc(O)cc(-c3ncc4c(N[C@@H](C)c5cc(C(=O)N(C)C)nn5C)nc(OC[C@@]56CCCN5C[C@H](F)C6)nc4c3F)c12 [Example 650, 5-((S)-1-((7-(8-ethyl-7-fluoro-3-hydroxynaphthalen-1-yl)-8-fluoro-2-(((2R,7aS)-2-fluorohexahydro-1H-pyrrolizin-7a-yl)methoxy)pyrido[4,3-d]pyrimidin-4-yl)amino)ethyl)-N,N,1-trimethyl-1H-pyrazole-3-carboxamide] | 14 | 162 | 256 | > 10000 | < 2 | 3 | 1320 | 2410 | – | 847 | – | – |
| CCc1c(F)ccc2cc(O)cc(-c3ncc4c(N5CCC6CCC(C6)C5)nc(OC[C@@]56CCCN5C[C@H](F)C6)nc4c3F)c12 (stereo partly drawn) [Example 550, 4-(4-(3-azabicyclo[4.2.1]nonan-3-yl)-8-fluoro-2-(((2R,7aS)-2-fluorotetrahydro-1H-pyrrolizin-7a(5H)-yl)methoxy)pyrido[4,3-d]pyrimidin-7-yl)-5-ethyl-6-fluoronaphthalen-2-ol] | 47 | 293 | 645 | > 10000 | 14 | 8 | 590 | 1370 | – | 423 | – | – |
| CCc1c(F)ccc2cc(O)cc(-c3ncc4c(N5CCCC(O)(C(N)=O)C5)nc(OC[C@@]56CCCN5C[C@H](F)C6)nc4c3F)c12 (stereo partly drawn) [Example 574, 1-(7-(8-ethyl-7-fluoro-3-hydroxynaphthalen-1-yl)-8-fluoro-2-(((2R,7aS)-2-fluorohexahydro-1H-pyrrolizin-7a-yl)methoxy)pyrido[4,3-d]pyrimidin-4-yl)-3-hydroxypiperidine-3-carboxamide] | 7 | 1130 | 78 | > 10000 | 5 | 7 | 3420 | – | – | – | 18 | 19 |
| CCc1c(F)ccc2cc(O)cc(-c3ncc4c(N5CCC(Cn6cccn6)C5)nc(OC[C@@]56CCCN5C[C@H](F)C6)nc4c3F)c12 (stereo partly drawn) [Example 587, 4-(4-(3-((1H-pyrazol-1-yl)methyl)pyrrolidin-1-yl)-8-fluoro-2-(((2R,7aS)-2-fluorotetrahydro-1H-pyrrolizin-7a(5H)-yl)methoxy)pyrido[4,3-d]pyrimidin-7-yl)-5-ethyl-6-fluoronaphthalen-2-ol] | 323 | 3090 | 926 | > 10000 | 64 | 74 | 2070 | – | – | – | -12 | 6 |
| CCc1c(F)ccc2cc(O)cc(-c3ncc4c(N5CCC(C)C(F)(F)CC5)nc(OC[C@@]56CCCN5C[C@H](F)C6)nc4c3F)c12 (stereo partly drawn) [Example 581, 4-(4-(4,4-difluoro-5-methylazepan-1-yl)-8-fluoro-2-(((2R,7aS)-2-fluorotetrahydro-1H-pyrrolizin-7a(5H)-yl)methoxy)pyrido[4,3-d]pyrimidin-7-yl)-5-ethyl-6-fluoronaphthalen-2-ol] | 160 | 1170 | 527 | > 10000 | 39 | 41 | 1370 | – | – | – | 21 | -24 |

More lines, main results first:

| IC50 [1] [nM] | IC50 [3] [nM] | IC50 [5] [nM] | IC50 [6] [nM] | IC50 [7] [nM] | IC50 [8] [nM] | IC50 [9] [nM] | IC50 [2] [nM] | IC50 [4] [nM] | IC50 [10] [nM] | SMILES | inhibition at 0.1 µM [2] [%] | inhibition at 0.1 µM [4] [%] |
| --- | --- | --- | --- | --- | --- | --- | --- | --- | --- | --- | --- | --- |
| 12 | 216 | 22 | > 10000 | 6 | 4 | 617 | 517 | 165 | 174 | CCc1c(F)ccc2cc(O)cc(-c3ncc4c(N5C[C@H](F)C[C@@H](OC)C5)nc(OC[C@@]56CCCN5C[C@H](F)C6)nc4c3F)c12 [Example 557, 5-ethyl-6-fluoro-4-(8-fluoro-4-((3R,5R)-3-fluoro-5-methoxypiperidin-1-yl)-2-(((2R,7aS)-2-fluorohexahydro-1H-pyrrolizin-7a-yl)methoxy)pyrido[4,3-d]pyrimidin-7-yl)naphthalen-2-ol] | – | – |
| 407 | 1180 | 1480 | > 10000 | 244 | 263 | 2020 | – | – | – | CCc1c(F)ccc2c(Br)c(O)cc(-c3ncc4c(N5C[C@@H]6C[C@H](C5)[C@H](O)C6)nc(OC[C@@]56CCCN5C[C@H](F)C6)nc4c3F)c12 [Example 537, (1R,5R,6R)-3-(7-(4-bromo-8-ethyl-7-fluoro-3-hydroxynaphthalen-1-yl)-8-fluoro-2-(((2R,7aS)-2-fluorohexahydro-1H-pyrrolizin-7a-yl)methoxy)pyrido[4,3-d]pyrimidin-4-yl)-3-azabicyclo[3.2.1]octan-6-ol] | 2 | 29 |
| < 2 | 948 | 123 | > 10000 | < 2 | 3 | 690 | – | – | – | CCc1c(F)ccc2cc(O)cc(-c3ncc4c(N5CCC[C@@](C)(O)C5)nc(OCC5(CNC)CC5)nc4c3F)c12 [Example 696, (R)-1-(7-(8-ethyl-7-fluoro-3-hydroxynaphthalen-1-yl)-8-fluoro-2-((1-((methylamino)methyl)cyclopropyl)methoxy)pyrido[4,3-d]pyrimidin-4-yl)-3-methylpiperidin-3-ol] | 5 | 21 |
| 72 | 391 | 293 | > 10000 | 10 | 7 | 1230 | – | – | – | CCc1c(F)ccc2cc(O)cc(-c3ncc4c(N5CCCC(C6(O)CCC6)C5)nc(OC[C@@]56CCCN5C[C@H](F)C6)nc4c3F)c12 (stereo partly drawn) [Example 593, 5-ethyl-6-fluoro-4-(8-fluoro-2-(((2R,7aS)-2-fluorotetrahydro-1H-pyrrolizin-7a(5H)-yl)methoxy)-4-(3-(1-hydroxycyclobutyl)piperidin-1-yl)pyrido[4,3-d]pyrimidin-7-yl)naphthalen-2-ol] | -4 | 0 |
